From patent US12577267B2, “Pyrimidine compounds for use as MAP4K1 inhibitors” (GLENMARK SPECIALITY S.A., priority 2021, dated 2026)
Structures can show the parent of a compound that is named as a salt. Where two headings read alike, the source gives them in different places.

Target: MAP4K-1 enzyme (Homo sapiens, UniProt Q92918)
Test: FRET one step binding assay (tracer displacement)
Procedure: This is a one step binding assay based on the binding and displacement of the labeled tracer, where compound addition is followed by addition of the anti-GST tagged europium (Eu) as the donor and Alexa Fluor-labeled tracer as the acceptor.
Test compounds were dissolved in dimethylsulfoxide (DMSO) to prepare 10.0 mM stock solutions and diluted to the desired concentration. The final concentration of DMSO in the reaction was 3% (v/v). The assay mixture was prepared by mixing 2 nM of the Eu-Anti-GST Antibody and 5 nM MAP4K-1 enzyme in the Kinase buffer containing 50 mM HEPES (pH 7.5), 10 mM MgCl2, 1 mM EGTA, 0.01% Brij-35 with or without the desired concentration of the compound. The reaction was incubated on ice for 15 min. […] After shaking for 5 min the reaction was further incubated for 1 hour at room temperature and this was kept at 4° C. and read on ARTEMIS reader as per the kit instructions (Thermo). […] The activity was calculated as percent of control reaction. IC50 values were calculated from dose response curve by nonlinear regression analysis using GraphPad Prism software.

Sequence of MAP4K-1 enzyme (Q92918 whole entry): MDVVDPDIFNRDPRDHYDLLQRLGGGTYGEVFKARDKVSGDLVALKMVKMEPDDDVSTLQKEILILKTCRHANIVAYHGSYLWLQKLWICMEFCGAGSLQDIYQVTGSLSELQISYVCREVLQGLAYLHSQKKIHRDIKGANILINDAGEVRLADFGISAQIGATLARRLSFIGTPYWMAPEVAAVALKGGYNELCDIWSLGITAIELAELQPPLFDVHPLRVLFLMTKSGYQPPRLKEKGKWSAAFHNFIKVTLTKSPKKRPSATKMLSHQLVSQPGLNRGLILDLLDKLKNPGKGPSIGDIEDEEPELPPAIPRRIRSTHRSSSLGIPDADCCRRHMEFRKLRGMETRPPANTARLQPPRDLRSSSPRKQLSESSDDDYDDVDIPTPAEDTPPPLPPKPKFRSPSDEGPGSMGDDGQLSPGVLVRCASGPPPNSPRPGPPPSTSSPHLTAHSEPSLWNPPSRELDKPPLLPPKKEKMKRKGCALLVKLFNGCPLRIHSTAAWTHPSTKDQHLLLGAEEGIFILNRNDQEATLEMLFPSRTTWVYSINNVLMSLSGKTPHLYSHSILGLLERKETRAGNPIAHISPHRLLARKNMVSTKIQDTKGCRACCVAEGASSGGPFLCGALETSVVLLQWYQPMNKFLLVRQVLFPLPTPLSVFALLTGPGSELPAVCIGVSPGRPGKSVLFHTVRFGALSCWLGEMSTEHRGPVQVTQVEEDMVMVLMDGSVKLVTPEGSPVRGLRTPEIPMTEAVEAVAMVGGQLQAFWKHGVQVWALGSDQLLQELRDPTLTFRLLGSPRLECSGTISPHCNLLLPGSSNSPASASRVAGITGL

Row | SMILES | inhibition at 1 µM (1 μM compound) [%] | inhibition at 10 µM (10 μM compound) [%] | IC50 (IC50 (nM)) [nM] | IC50 (read-out: IC50) [nM] | % Inhibition at 1 μM (1 μM compound, 1 µM) [%] | % Inhibition at 10 μM (10 μM compound, 10 µM) [%]
1 | COc1cc2c(cc1Nc1ncc(Cl)c(Nc3ccc(OS(=O)(=O)F)cc3P(C)(C)=O)n1)C(C)(C)N(C)CC2 [Example 11, 4-((5-Chloro-2-((6-methoxy-1,1,2-trimethyl-1,2,3,4-tetrahydroisoquinolin-7-yl)amino)pyrimidin-4-yl)amino)-3-(dimethylphosphoryl)phenyl sulfurofluoridate dihydrochloride] | 75.1 | 87.2 | < 50 | – | – | –
2 | COc1cc2c(cc1Nc1ncc(Cl)c(Nc3ccc(O[C@H]4CCOC4)cc3P(C)(C)=O)n1)CN(C)CC2 [Example 48, (S)-(2-((5-Chloro-2-((6-methoxy-2-methyl-1,2,3,4-tetrahydroisoquinolin-7-yl)amino)pyrimidin-4-yl)amino)-5-((tetrahydrofuran-3-yl)oxy)phenyl)dimethylphosphineoxide] | 84.2 | 81.4 | – | < 50 | – | –
3 | COc1cc2c(cc1Nc1ncc(Cl)c(Nc3cc(OS(=O)(=O)F)ccc3P(C)(C)=O)n1)CN(C)CC2 [Example 18, 3-((5-Chloro-2-((6-methoxy-2-methyl-1,2,3,4-tetrahydroisoquinolin-7-yl)amino)pyrimidin-4-yl)amino)-4-(dimethylphosphoryl)phenyl sulfurofluoridate dihydrochloride] | 87.3 | 83.2 | < 50 | – | – | –
4 | COc1cc2c(cc1Nc1ncc(Cl)c(Nc3ccc(OS(=O)(=O)F)cc3P(C)(C)=O)n1)C(C)N(C)CC2 (racemic) [Example 12, ±4-((5-chloro-2-((6-methoxy-1,2-dimethyl-1,2,3,4-tetrahydroisoquinolin-7-yl)amino)pyrimidin-4-yl)amino)-3-(dimethylphos-phoryl)phenylsulfurofluoridate dihydrochloride] | 87.5 | 85.9 | < 50 | – | – | –
5 | COc1cc2c(cc1Nc1ncc(Cl)c(Nc3ccc(OC(F)F)cc3P(C)(C)=O)n1)CN(C)CC2 [Example 45, (2-((5-Chloro-2-((6-methoxy-2-methyl-1,2,3,4-tetrahydroisoquinolin-7-yl)amino)pyrimidin-4-yl)amino)-5-(difluoromethoxy)phenyl)dimethylphosphineoxide] | 74.8 | 79 | – | < 50 | – | –
6 | COCCOc1ccc(Nc2nc(Nc3cc4c(cc3OC)CCN(C)C4)ncc2Cl)c(P(C)(C)=O)c1 [Example 50, (2-((5-Chloro-2-((6-methoxy-2-methyl-1,2,3,4-tetrahydroisoquinolin-7-yl)amino)pyrimidin-4-yl)amino)-5-(2-methoxyethoxy)phenyl)dimethyl phosphine oxide] | 92.7 | 94.8 | – | < 50 | – | –
7 | [2H]C([2H])([2H])Oc1cc2c(cc1Nc1ncc(Cl)c(Nc3ccc(OS(=O)(=O)F)cc3P(C)(C)=O)n1)C([2H])([2H])NCC2 [Example 40, 4-((5-Chloro-2-((6-methoxy-d3-1,2,3,4-tetrahydroisoquinolin-7-yl-1,1-d2)amino)pyrimidin-4-yl)amino)-3-(dimethylphosphoryl)phenyl sulfofluoridate dihydrochloride] | 83.3 | 84 | < 50 | – | – | –
8 | COc1cc2c(cc1Nc1ncc(Cl)c(Nc3ccc(OS(=O)(=O)F)cc3P(C)(C)=O)n1)CN(C1COC1)CC2 [Example 16, 4-((5-Chloro-2-((6-methoxy-2-(oxetan-3-yl)-1,2,3,4-tetrahydroisoquinolin-7-yl)amino)pyrimidin-4-yl)amino)-3-(dimethylphosphoryl)phenyl sulfurofluoridate dihydrochloride] | 87.3 | 86 | < 50 | – | – | –
9 | COc1cc2c(cc1Nc1ncc(Cl)c(Nc3cc(OS(=O)(=O)F)ccc3P(C)(C)=O)n1)C(C)N(C)CC2 (single isomer, unassigned; isomer 1) [Example 31, 3-((5-Chloro-2-((6-methoxy-1,2-dimethyl-1,2,3,4-tetrahydroisoquinolin-7-yl)amino)pyrimidin-4-yl)amino)-4-(dimethylphosphoryl)phenyl sulfofluoridate dihydrochloride (Isomer 1)] | 84.4 | 89 | < 50 | – | – | –
10 | [2H]C([2H])([2H])N1CCc2cc(OC)c(Nc3ncc(Cl)c(Nc4ccc(OS(=O)(=O)F)cc4P(C)(C)=O)n3)cc2C1 [Example 4, 4-((5-Chloro-2-((6-methoxy-2-(methyl-d3)-1,2,3,4-tetrahydroisoquinolin-7-yl)amino)pyramidin-4-yl)amino)-3-(dimethylphosphoryl) phenylsulfurofluoridate dihydrochloride] | 72.9 | 78.4 | < 50 | – | – | –
11 | CN1CCc2cc(O)c(Nc3ncc(Cl)c(Nc4ccc(OS(=O)(=O)F)cc4P(C)(C)=O)n3)cc2C1 [Example 61, 4-((5-Chloro-2-((6-hydroxy-2-methyl-1,2,3,4-tetrahydroisoquinolin-7-yl)amino)pyrimidin-4-yl)amino)-3-(dimethylphosphoryl)phenylsulfofluoridate dihydrochloride] | 89.6 | 89.7 | < 50 | – | – | –
12 | [2H]C([2H])([2H])Oc1cc2c(cc1Nc1ncc(Cl)c(Nc3ccc(OS(=O)(=O)F)cc3P(C)(C)=O)n1)CN(C([2H])([2H])[2H])CC2 [Example 6, 4-((5-Chloro-2-((6-methoxy-d3)-2-(methyl-d3)-1,2,3,4-tetrahydroisoquinolin-7-yl)amino)pyrimidin-4-yl)amino)-3-(dimethylphosphoryl)phenyl sulfurofluoridate dihydrochloride] | 80 | 82 | < 50 | – | – | –
13 | COc1cc2c(cc1Nc1ncc(Cl)c(Oc3ccc(OS(=O)(=O)F)cc3P(C)(C)=O)n1)CN(C)CC2 [Example 60, 4-((5-Chloro-2-((6-methoxy-2-methyl-1,2,3,4-tetrahydroisoquinolin-7-yl)amino)pyrimidin-4-yl)oxy)-3-(dimethylphosphoryl)phenylsulfofluoridate dihydrochloride] | 70.5 | 83.4 | 100 to 500 | – | – | –
14 | [2H]C([2H])([2H])Oc1cc2c(cc1Nc1ncc(Cl)c(Nc3ccc(OS(=O)(=O)F)cc3P(C)(C)=O)n1)CNCC2 [Example 39, 4-((5-Chloro-2-((6-methoxy-d3-1,2,3,4-tetrahydroisoquinolin-7-yl)amino)pyrimidin-4-yl)amino)-3-(dimethylphosphoryl)phenyl sulfofluoridate dihydrochloride] | 75.1 | 87 | < 50 | – | – | –
15 | COc1cc2c(cc1Nc1ncc(Cl)c(Nc3ccc(OCC(F)F)cc3P(C)(C)=O)n1)CN(C)CC2 [Example 46, (2-((5-Chloro-2-((6-methoxy-2-methyl-1,2,3,4-tetrahydroisoquinolin-7-yl)amino)pyrimidin-4-yl)amino)-5-(2,2-difluoroethoxy)phenyl) dimethylphosphine oxide] | 73.6 | 73.9 | – | < 50 | – | –
16 | COc1cc2c(cc1Nc1ncc(Cl)c(Nc3ncc(OS(=O)(=O)F)cc3P(C)(C)=O)n1)C(C)N(C)CC2 (single isomer, unassigned; isomer 2) [Example 24, 6-((5-Chloro-2-((6-methoxy-1,2-dimethyl-1,2,3,4-tetrahydroisoquinolin-7-yl)amino)pyrimidin-4-yl)amino)-5-(dimethylphosphoryl)pyridin-3-yl sulfofluoridate dihydrochloride (Isomer 2)] | – | – | < 50 | – | 86.68 | 85.52
17 | COc1cc2c(cc1Nc1ncc(Cl)c(Nc3ccc(OS(=O)(=O)F)cc3P(C)(C)=O)n1)COCC2 [Example 28, 4-((5-Chloro-2-((6-methoxyisochroman-7-yl)amino)pyrimidin-4-yl)amino)-3-(dimethylphosphoryl)phenyl sulfofluoridate hydrochloride] | 69.7 | 75.9 | < 50 | – | – | –
18 | COc1cc2c(cc1Nc1ncc(Cl)c(Nc3c(F)cc(OS(=O)(=O)F)cc3P(C)(C)=O)n1)CN(C)CC2 [Example 14, 4-((5-Chloro-2-((6-methoxy-2-methyl-1,2,3,4-tetrahydroisoquinolin-7-yl)amino)pyrimidin-4-yl)amino)-3-(dimethylphosphoryl)-5-fluorophenylsulfurofluoridate dihydrochloride] | 89.7 | 93.3 | < 50 | – | – | –
19 | CN1CCc2cc(OC(F)F)c(Nc3ncc(Cl)c(Nc4ccc(OS(=O)(=O)F)cc4P(C)(C)=O)n3)cc2C1 [Example 10, 4-((5-Chloro-2-((6-(difluoromethoxy)-2-methyl-1,2,3,4-tetrahydroqisoquinolin-7-yl)amino)pyrimidin-4-yl)amino)-3-(dimethylphosphoryl)phenyl sulfurofluoridate dihydrochloride] | 92.3 | 89 | < 50 | – | – | –
20 | COc1cc2c(cc1Nc1ncc(Cl)c(Nc3ccc(OS(=O)(=O)F)cc3P(C)(C)=O)n1)CNCC2 [Example 38, 4-((5-Chloro-2-((6-methoxy-1,2,3,4-tetrahydroisoquinolin-7-yl)amino)pyrimidin-4-yl)amino)-3-(dimethylphosphoryl)phenylsulfofluoridate dihydrochloride] | 84.5 | 85.7 | < 50 | – | – | –
